≈ marks a conversion by molar mass, not a printed value.
How the values were obtained:
Esherichia coli (25922) = test: MIC, NCCLS broth microdilution; format: cell-based, Escherichia coli; conditions: Escherichia coli (25922)
Bacillus cereus (11778) = test: MIC, NCCLS broth microdilution; format: cell-based
[1] = test system: Candida albicans (38247) (Polyene resistant); test: MIC, antifungal assay; format: cell-based
[2] = test system: Staphylococcus aureus (29213); test: MIC, NCCLS broth microdilution; format: cell-based; conditions: Staphylococcus aureus (29213)
[3] = test system: Staphylococcus aureus (33591) (methicillin resistant); test: MIC, NCCLS broth microdilution; format: cell-based; conditions: Staphylococcus aureus (33591), methicillin resistant (MRSA)
Micrococcus luteus (381) = test: MIC, NCCLS broth microdilution; format: cell-based
[4] = test system: Enterococcus faecium (51559) (vacomycin resistant); test: MIC, NCCLS broth microdilution; format: cell-based; conditions: Enterococcus faecium (51559), vancomycin resistant
[5] = test system: Streptococcus pneumoniae (51422) (multiple drug resistant); test: MIC, NCCLS broth microdilution; format: cell-based
[6] = test system: Enterococcus faecalis (29212); test: MIC, NCCLS broth microdilution; format: cell-based; conditions: Enterococcus faecalis (29212)
[7] = test system: Streptococcus pneumoniae (49619); test: MIC, NCCLS broth microdilution; format: cell-based; conditions: Streptococcus pneumoniae (49619)
[8] = test system: Corynebacterium Group A (49676); test: MIC, NCCLS broth microdilution; format: cell-based; conditions: Corynebacterium Group A (49676)
[9] = test system: Staphylococcus epidermidis (12228); test: MIC, NCCLS broth microdilution; format: cell-based; conditions: Staphylococcus epidermidis (12228)
[10] = test system: Streptococcus pyogenes (49339); test: MIC, NCCLS broth microdilution; format: cell-based; conditions: Streptococcus pyogenes (49339); Table Ia: Streptococcus Group A(49339)
[11] = test system: Pseudomona aeruginosa (27853); test: MIC, NCCLS broth microdilution; format: cell-based; conditions: Pseudomona aeruginosa (27853)
Candida albicans (90028) = test: MIC, antifungal assay; format: cell-based
[12] = test system: Haemophilus influenzae (49247); test: MIC, NCCLS broth microdilution; format: cell-based; conditions: Haemophilus influenzae (49247)
[13] = test system: Candida parapsilosis (10232); test: MIC, antifungal assay; format: cell-based; conditions: Candida parapsilosis (10232)
[14] = test system: Cryptococcus neoformans (90112); test: MIC, antifungal assay; format: cell-based; conditions: Cryptococcus neoformans (90112)
AGTACT = test: DNase I footprint titration, AGTACT site; format: binding; conditions: equilibrium association constant Ka; pH 7.0, 22° C.
ACTACT = test: DNase I footprint titration, ACTACT site; format: binding; conditions: equilibrium association constant Ka; pH 7.0, 22° C.
AATACT = test: DNase I footprint titration, AATACT site; format: binding; conditions: equilibrium association constant Ka; pH 7.0, 22° C.
ATTACT = test: DNase I footprint titration, ATTACT site; format: binding; conditions: equilibrium association constant Ka; pH 7.0, 22° C.

**Q.** `CN=C(N)CCNC(=O)c1cc(NC(=O)c2cc(NC(=O)c3cc(NC(=O)c4nsc(Cl)c4Cl)cn3C)cn2C)cn1C` [V-pp] was tested. Which MIC (Esherichia coli (25922)) did it give?
**A.** 32 µg/mL (≈ 49.4 µM)

**Q.** What about the MIC (Bacillus cereus (11778); Bacillus cereus (11778)) of the same compound?
**A.** 0.5 µg/mL (≈ 0.772 µM)

**Q.** And the MIC [1]?
**A.** 4 µg/mL (≈ 6.18 µM)

**Q.** What about the MIC [2] of the same compound?
**A.** 0.5 µg/mL (≈ 0.772 µM)

**Q.** Which results are given for `CN(C)CCCNC(=O)c1cc(NC(=O)c2cc(NC(=O)c3cc(NC(=O)c4nsc(NCCCN(C)C)c4Cl)cn3C)cn2C)cn1C` [V-q]?
**A.** MIC [3]: 16 µg/mL (≈ 22.4 µM); MIC (Micrococcus luteus (381)): 8 µg/mL (≈ 11.2 µM); MIC (Esherichia coli (25922)): >128 µg/mL; MIC [4]: 4 µg/mL (≈ 5.6 µM); MIC [5]: 4 µg/mL (≈ 5.6 µM); MIC [6]: 1 µg/mL (≈ 1.4 µM); MIC [7]: 2 µg/mL (≈ 2.8 µM); MIC [8]: 1 µg/mL (≈ 1.4 µM); MIC [9]: 4 µg/mL (≈ 5.6 µM); MIC [10]: 1 µg/mL (≈ 1.4 µM); MIC (Bacillus cereus (11778); Bacillus cereus (11778)): 4 to 8 µg/mL; MIC [11]: >128 µg/mL; MIC [2]: 8 to 16 µg/mL

**Q.** How did the MIC (Esherichia coli (25922)) turn out when `Cn1cc(NC(=O)c2cc(NC(=O)c3cc(NC(=O)c4nsc(NCCN)c4Cl)cn3C)cn2C)cc1C(=O)NCCC1=NCCN1` [V-qq] was run?
**A.** 32 µg/mL (≈ 46.8 µM)

**Q.** What about the MIC (Bacillus cereus (11778); Bacillus cereus (11778)) of the same compound?
**A.** 0.25 µg/mL (≈ 0.366 µM)

**Q.** And the MIC [1]?
**A.** 32 µg/mL (≈ 46.8 µM)

**Q.** And the MIC [2]?
**A.** 0.25 µg/mL (≈ 0.366 µM)

**Q.** With `CCN(CC)CCNC(=O)CCNC(=O)c1cc(NC(=O)c2cc(NC(=O)c3nsc(NCCN(CC)CC)c3Cl)cn2C)cn1C` [V-r] as the compound, how does the MIC (Esherichia coli (25922)) read?
**A.** >128 µg/mL

**Q.** What about the MIC [6] of the same compound?
**A.** 16 µg/mL (≈ 23.1 µM)

**Q.** And the MIC (Candida albicans (90028))?
**A.** >128 µg/mL

**Q.** And the MIC [7]?
**A.** 16 µg/mL (≈ 23.1 µM)

**Q.** What about the MIC [12] of the same compound?
**A.** >128 µg/mL

**Q.** And the MIC (Bacillus cereus (11778); Bacillus cereus (11778))?
**A.** >128 µg/mL

**Q.** What about the MIC [13] of the same compound?
**A.** 2 µg/mL (≈ 2.89 µM)

**Q.** And the MIC [14]?
**A.** 16 µg/mL (≈ 23.1 µM)

**Q.** And the MIC [1]?
**A.** >128 µg/mL

**Q.** And the MIC [2]?
**A.** >128 µg/mL

**Q.** What does the source list for `COCCCNc1snc(C(=O)Nc2cc(C(=O)Nc3cc(C(=O)Nc4cc(C(=O)NCCN5CCOCC5)n(C)c4)n(C)c3)n(C)c2)c1Cl` [V-rr]?
**A.** MIC (Esherichia coli (25922)): 32 µg/mL (≈ 43.9 µM); MIC (Bacillus cereus (11778); Bacillus cereus (11778)): 0.5 µg/mL (≈ 0.686 µM); MIC [1]: 32 µg/mL (≈ 43.9 µM); MIC [2]: 1 µg/mL (≈ 1.37 µM)

**Q.** With `Cn1cc(NC(=O)c2cc(NC(=O)c3cc(NC(=O)c4nsc(NCC5CC5)c4Cl)cn3C)cn2C)cc1C(=O)NCCN1CCOCC1` [V-tt] as the compound, how does the MIC (Esherichia coli (25922)) read?
**A.** 32 µg/mL (≈ 45 µM)

**Q.** What about the MIC (Bacillus cereus (11778); Bacillus cereus (11778)) of the same compound?
**A.** 0.25 µg/mL (≈ 0.351 µM)

**Q.** What about the MIC [1] of the same compound?
**A.** 32 µg/mL (≈ 45 µM)

**Q.** And the MIC [2]?
**A.** 0.5 µg/mL (≈ 0.703 µM)

**Q.** What does the source list for `CN(C)CCCNC(=O)CCNC(=O)c1cc(NC(=O)c2cc(NC(=O)c3cc(NC(=O)c4nsc(Cl)c4Cl)cn3C)cn2C)cn1C` [V-u]?
**A.** Binding Constant, sequence AGTACT (AGTACT): 1e+11 M⁻¹; Binding Constant, sequence ACTACT (ACTACT): 1e+09 M⁻¹; Binding Constant, sequence AATACT (AATACT): 1e+08 M⁻¹; Binding Constant, sequence ATTACT (ATTACT): 5e+08 M⁻¹

**Q.** What does the source list for `Cn1cc(NC(=O)c2cc(NC(=O)c3cc(NC(=O)c4nsc(Cl)c4Cl)cn3C)cn2C)cc1C(=O)NCCC1=NCCN1` [V-uu]?
**A.** MIC (Bacillus cereus (11778); Bacillus cereus (11778)): 1 µg/mL (≈ 1.52 µM); MIC [2]: 0.25 µg/mL (≈ 0.379 µM)

**Q.** How did the MIC (Bacillus cereus (11778); Bacillus cereus, strain not stated) turn out when `CN(C)CCCNC(=O)c1cc(NC(=O)c2cc(NC(=O)c3cc(NC(=O)c4nsc(N5CCCCC5)c4Cl)cn3C)cn2C)cn1C` [V-w] was run?
**A.** 0.5 µg/mL (≈ 0.717 µM)

**Q.** What does the source list for `CN(C)CCCNC(=O)CCNC(=O)c1cc(NC(=O)c2cc(NC(=O)c3cc(NC(=O)c4nc(NC(=O)CCCNC(=O)c5cc(NC(=O)c6cc(NC(=O)c7cc(NC(=O)c8nsc(Cl)c8Cl)cn7C)cn6C)cn5C)cn4C)cn3C)cn2C)cn1C` [VI-a]?
**A.** Binding Constant, sequence AGTACT (AGTACT): 2e+10 M⁻¹; Binding Constant, sequence ACTACT (ACTACT): 2e+09 M⁻¹; Binding Constant, sequence AATACT (AATACT): 2e+09 M⁻¹; Binding Constant, sequence ATTACT (ATTACT): 2e+09 M⁻¹

**Q.** For `CN(C)CCCNC(=O)CCNC(=O)c1cc(NC(=O)c2cc(NC(=O)c3cc(NC(=O)c4nc(NC(=O)CCCNC(=O)c5cc(NC(=O)c6cc(NC(=O)c7cc(NC(=O)c8nsc(NCCCN(C)C)c8Cl)cn7C)cn6C)cn5C)cn4C)cn3C)cn2C)cn1C` [VI-b], which “Binding Constant, sequence AGTACT” value (AGTACT) is on record?
**A.** 1e+11 M⁻¹

**Q.** And the “Binding Constant, sequence ACTACT” value (ACTACT)?
**A.** 7e+09 M⁻¹

**Q.** And the “Binding Constant, sequence AATACT” value (AATACT)?
**A.** 7e+09 M⁻¹

**Q.** What about the “Binding Constant, sequence ATTACT” value (ATTACT) of the same compound?
**A.** 7e+09 M⁻¹

— US20020065227A1, “Charged compounds comprising a nucleic acid binding moiety and uses therefor” (priority 2000, published 2002)
